The structures appear in SMILES notation. Like-named read-outs stand apart in the source and are kept apart here.

A short description of data set [1]: Iontophoretic drug permeation through hairless rat skin in Franz diffusion cells. Type of data set: in vitro ADME. As for the experimental part:
Full thickness abdominal skin freshly excised from sacrificed hairless rats was equilibrated in the receptor buffer and mounted on Franz diffusion cells (0.64 cm^2). The donor compartment (0.5 ml) contained corticosteroid in an appropriate buffer. […] For triamcinolone acetonide (TMCA), 3.5 mg/mL TMCA formulation (in 25% w/w PEG 400, 25% ETOH, 15% cremophor RH40, qs to 100% with citrate buffer pH 5.0) was used for the donor compartment. […] The receptor compartment for TMCA was citrate buffer with 20% ethanol. […] TMCA has no charge at pH 5 and was therefore delivered by anodal iontophoresis to utilize electroosmosis. […] For TMCA, the anode (Silver-Silver Chloride) was placed in the donor chamber along with drug solution and the cathode (Silver wire) was placed in the receptor chamber. Electric current (0.2 to 0.4 mA/cm^2) was applied using a custom current control device for up to 1 hr, after which experiments were either terminated or allowed to continue passively for various durations. Samples (0.3 ml) were taken from the receptor chamber at predetermined time points following iontophoresis and were replaced with the same amount of receptor buffer. The apparatus was maintained at 37° C. with constant stirring in both the donor and receptor compartments to maintain sink conditions. The samples were then analyzed by HPLC to measure drug permeation through skin. […] The mobile phase consisted of 75/25 ammonium acetate (5 mM) and acetonitrile. For TMCA, samples of receptor fluid (injection volume 20 uL, run time 8 min) were analyzed using the same HPLC system with a flow rate of 0.8 ml/min and UV detection at 237 nm. The mobile phase consisted of 70/30 methanol and water. […] Control passive experiments were conducted in the same way except for the application of electric current. Data were expressed as means±standard deviations. All experiments were performed in at least triplicate.
Samples were removed periodically from the receptor and analyzed by HPLC.
Samples were measured periodically from the receptor and analyzed by HPLC over 24 hrs.
(§1) The effect of iontophoresis on the intradermal and transdermal permeation of TMCA using hairless rat skin in vitro was investigated using methods previously described. In addition, the amount of drug deposited in the stratum corneum and underlying skin after iontophoresis was quantified in vivo using tape stripping and skin extraction methods described previously. TMCA (3.5 mg/ml) was formulated in 15% cremophor RH40, 25% PEG 400 and 25% ethanol (95%), in citrate buffer pH 5.0. Anodal iontophoresis was performed for 1 h at 0.2 mA/cm^2.

Data set [2] is described as follows: Solubility in solubilizer solutions (shaken overnight, supernatant by HPLC). Type of data set: physicochemical. As to conditions: for solubility: solubilizer solution, thermodynamic from solid, read-out: Solubility, Final conc. As to the method: Triamcinolone acetonide is poorly ionized and has a poor solubility profile; to overcome this, individual as well as combinations of potential solubilizers were tested. TMCA (2.5 mg) was mixed into 1 mL of the individual components or mixtures of potential solubilizers and shaken overnight; drug was then added to all clear solutions which were then mixed overnight. The samples were then centrifuged and the supernatants analyzed by HPLC to determine drug solubility.
DEX-P (100 mg) was mixed into 1 mL of the individual components or mixtures of potential solubilizers and shaken overnight. Additional drug (100 mg) was added to clear solutions and mixed overnight. The samples were then centrifuged and the supernatants analyzed by HPLC to determine drug solubility.

The nature of data set [3]: In vivo skin delivery: tape stripping (stratum corneum) and skin extraction (underlying skin). Set-up: species or system hairless rat.
Source text: After wiping excess drug off the skin using a moist kimwipe, pre-weighed tape strips were placed on the area exposed to the drug and made sure they adhered to the skin by rolling with a glass rod for 30 seconds. After rolling, the tape strips were held from one end with a pair of forceps and ripped off the skin very quickly. The first strip was discarded to remove the remnants of the drug on the skin. This process was continued with 30 strips to fully remove the stratum corneum and each strip analyzed for drug content by immersing in 1 mL extraction buffer for 1 hr under gentle stirring (150 rpm). […] All tape strip extracts were analyzed with HPLC. […] TEWL values were also recorded after every five strips.
After tape stripping, the rats were euthanized and the underlying skin excised. Before proceeding for skin extraction studies, the weight of the excised skin piece was recorded. This excised skin was minced into small pieces and placed into glass vials. To this minced skin, 1 mL deionised water was added and shaken for 30 minutes on a shaker. To this 100 μL of 0.1% HCl was added and centrifuged. To the centrifuged sample 6 mL of methylene chloride was added and shaken for 30 minutes. The methylene chloride (organic) extract was then evaporated under nitrogen. The methylene chloride addition and evaporation step was repeated and combined with the previous extraction. After evaporation, the samples were reconstituted using 1 mL of acetonitrile, filtered and filled in HPLC vials and analyzed accordingly. For TMCA, 30/70 chloroform and methanol was used as the extraction solvent. […] The measured drug levels from the skin were corrected for recovery.
as §1
Hairless rats (n=4 per group) were anesthetized with ketamine (75 mg/kg) and xylazine (10 mg/kg) administered intraperitoneally. Once the rats were anaesthetized, the abdominal area was wiped with water and alcohol swabs. The cartridge loaded with the donor formulation was placed on the abdomen of each rat and connected to the power supply (Keithley Instruments, Cleveland, Ohio) for cathodal delivery. The counter electrode was placed around 3 cm away from the drug cartridge, and connected to the respective polarity of the power supply. The cartridge and the counter electrode were made sure to be in contact with the skin and a bandage was placed to prevent them from any further movement. Skin portion around the cartridge approximately 0.5 cm was marked for excision after the study to determine the lateral diffusion of the drug. Iontophoresis was conducted at a current density of 0.2 mA/cm^2 for 15 or 60 minutes. The donor cartridge was removed from the skin after iontophoresis and the skin was wiped with a moist kimwipe to remove any remaining drug on the skin. The skin was then tape stripped (30 strips) to remove the stratum corneum and the drug in the strips evaluated (with the first strip discarded for surface drug removal). The drug in the underlying skin was then extracted.

The mark [4] stands for this setting: cathodal 0.2 mA/cm2 for 15 minutes, FIG. 6B.
Where [5] appears, read: cathodal 0.2 mA/cm^2 for 60 minutes, FIG. 6A.
Setting [6] is: 3.5 mg/ml, pH 5.0, anodal iontophoresis 0.2 mA/cm^2 for 1 h.
[7] abbreviates: 3.5 mg/ml, pH 5.0, passive delivery.

The term solubility denotes how much of the substance goes into solution per volume. For the molecule `C[C@@H]1C[C@H]2[C@@H]3CCC4=CC(=O)C=C[C@]4(C)[C@@]3(F)[C@@H](O)C[C@]2(C)[C@@]1(O)C(=O)COP(=O)(O)O` [DEX, dexamethasone sodium phosphate], the “permeation over time, 10 mg/mL” value in data set [1] (10 mg/mL in phosphate buffer pH 7.4, cathodal 0.2 mA/cm^2 for 1 hr, 24 hrs, FIG. 4) was “lower permeation over time compared to the higher drug concentrations”. The “cumulative permeation over 24 hrs, iontophoresis” value in data set [1] (25 mg/mL in phosphate buffer pH 7.4, cathodal 0.4 mA/cm^2 for 1 hr, sampled 24 hrs, FIG. 2) is “increased quite rapidly during the initial several hours and continued to increase up to 24 hrs”. Also, the “cumulative permeation over 24 hrs, passive” value in data set [1] (25 mg/mL in phosphate buffer pH 7.4, passive delivery (no current), FIG. 2) was “initially low but gradual increase”. In data set [1] (25 mg/mL, pH 7.4, cathodal 0.4 mA/cm^2 for 4 hr, FIG. 3), the “permeation over time, 4 hr iontophoresis” value is “highest permeation”. Also, the “cumulative permeation, cathodal vs anodal iontophoresis” value in data set [1] (25 mg/mL, cathodal in phosphate buffer pH 7.4 vs anodal in citrate buffer pH 3.5, 0.4 mA/cm^2 for 2 hours, sampled for 24 hrs, FIG. 1) is reported as “significant improvement in permeation compared to anodal iontophoresis”. For the same molecule, the “permeation over time, 25 and 50 mg/mL” value in data set [1] (25 and 50 mg/mL in phosphate buffer pH 7.4, cathodal 0.2 mA/cm^2 for 1 hr, 24 hrs, FIG. 4) is reported as “similar”. In addition, in data set [2] (aqueous buffer, Phosphate buffer), the solubility worked out at 70000 µg/mL. Further, the solubility in data set [2] (aqueous with cosolvent or surfactant or cyclodextrin, 15% ethanol (95%), 20% PEG400, 20% glycerin, in phosphate buffer (w/w)) stood at 156000 µg/mL. Also, the solubility in data set [2] (aqueous with cosolvent or surfactant or cyclodextrin, 15% ethanol (95%), 30% PEG400, 20% glycerin, in phosphate buffer (w/w)) stood at 197000 µg/mL. The “drug level in the skin over time after iontophoresis (depot)” value in data set [3] (0.2 mA/cm2 for 15 minutes, measured 0, 24 and 48 hours after, FIG. 6C) was “decreased slowly over time and was detectable at 48 hrs after iontophoresis”. Further, in data set [3] (setting [4]), the “initial drug level in stratum corneum, iontophoresis 15 min” value amounted to 13.63 ± 2.4 µg and the “initial drug level in underlying skin, iontophoresis 15 min” value amounted to 1.70 ± 1.70 µg. Besides, in data set [3] (setting [5]), the “amount in stratum corneum, iontophoresis 60 min” value is 23.70 ± 6.19 µg and the “amount in underlying skin, iontophoresis 60 min” value was 2.18 ± 0.69 µg. Moreover, in data set [3] (passive group, 60 minutes), the “localization of drug in skin, passive” value is recorded as “all of the drug was localized in the stratum corneum layer”. In data set [3] (phosphate buffer pH 7.4, cathodal 0.2 mA/cm^2 for 60 minutes, immediately after, FIG. 6A), the “total delivered into skin, iontophoresis” value was 25.88 ± 5.91 µg. The “total delivered into skin, passive” value in data set [3] (phosphate buffer pH 7.4, passive treatment 60 minutes, FIG. 6A) came to 13.31 ± 2.69 µg. In addition, the “drug in peripheral skin areas outside the contact area (lateral diffusion)” value in data set [3] (skin about 0.5 cm around the cartridge) is on record as “No drug was detected”.

Take `CC1(C)O[C@@H]2C[C@H]3[C@@H]4CCC5=CC(=O)C=C[C@]5(C)[C@@]4(F)[C@@H](O)C[C@]3(C)[C@]2(C(=O)CO)O1` [TMCA, triamcinolone acetonide]: in data set [1] (3.5 mg/ml in 15% cremophor RH40, 25% PEG 400, 25% ethanol, citrate buffer pH 5.0, with or without anodal iontophoresis 0.2 mA/cm^2 for 1 h), the “levels in the receptor chamber” value is listed as “No detectable levels”. Further, the “Solubility, Final conc” value in data set [2] (15% cremophor, 25% ethanol, 25% PEG 400 (w/w)) stood at 4420 µg/mL; in data set [2] (15% cremophor, 25% ethanol, 25% PEG 3350 (w/w)), 1980 µg/mL. In addition, the solubility in data set [2] (aqueous with cosolvent or surfactant or cyclodextrin, 5% tween 80 (w/w)) came out at 120 µg/mL; in data set [2] (aqueous with cosolvent or surfactant or cyclodextrin, 15% cremophor (w/w)) it was 480 µg/mL; in data set [2] (aqueous with cosolvent or surfactant or cyclodextrin, 15% cremophor, 25% ethanol (w/w)), 1380 µg/mL; in data set [2] (aqueous with cosolvent or surfactant or cyclodextrin, 15% cremophor, 25% ethanol, 25% glycerin (w/w)), 2430 µg/mL; in data set [2] (aqueous with cosolvent or surfactant or cyclodextrin, 15% cremophor, 50% PEG 400 (w/w)), 1240 µg/mL; in data set [2] (aqueous with cosolvent or surfactant or cyclodextrin, 15% cremophor, 50% glycerin (w/w)) it was 1180 µg/mL. In addition, the solubility in data set [2] (aqueous with cosolvent or surfactant or cyclodextrin, 25% PEG 400 (w/w)) amounted to 70 µg/mL; in data set [2] (aqueous with cosolvent or surfactant or cyclodextrin, 25% PEG 3350 (w/w)) it was 80 µg/mL; in data set [2] (aqueous with cosolvent or surfactant or cyclodextrin, 25% Propylene glycol (w/w)) it was 60 µg/mL; in data set [2] (aqueous with cosolvent or surfactant or cyclodextrin, 25% ethanol (w/w)), 230 µg/mL; in data set [2] (aqueous with cosolvent or surfactant or cyclodextrin, 25% glycerin (w/w)), 30 µg/mL. Also, the “amount deposited in the underlying skin after tape stripping, iontophoresis” value in data set [3] (setting [6]) was determined as 1.15 ± 0.32 µg. Moreover, in data set [3] (setting [6]), the “amount in the stratum corneum, iontophoresis” value was found to be 16.43 ± 1.99 µg. In addition, the “amount deposited in the underlying skin after tape stripping, passive” value in data set [3] (setting [7]) worked out at 0.34 ± 0.08 µg. In addition, the “amount in the stratum corneum, passive” value in data set [3] (setting [7]) came out at 19.66 ± 1.35 µg.

The record behind these values is US20110281834A1, “Pharmaceutical Formulations for Iontophoretic Delivery of a Corticosteroid” (priority 2008, published 2011).
